Data from patent publication US12012398B2, “Bicyclic compounds as androgen receptor modulators” (NIDO BIOSCIENCES, INC., priority 2021, dated 2024).

Tested on: LNCaP cells expressing ARR2PB-FireflyLuc and CMV-RenillaLuc
Experiment: LNCaP ARR2PB-FireflyLuc reporter assay, antagonist mode;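 note: IC50 bins in nM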
Type: cell-based
Settings: Homo sapiens, LNCaP, 48 h, +0.5 nM DHT, 48 h at 37° C., read-out: LNCap Antagonist Archive: IC50
Experimental: LNCaP cells expressing ARR2PB-FireflyLuc and CMV-RenillaLuc were treated with indicated concentrations of test compounds, enzalutamide (negative control), or DHT (positive control)+/−0.5 nM DHT for 48 h at 37° C. Fluorescent signals were read with the ImageXpress Micro Confocal System. Remaining activity (antagonist mode) was calculated as % Remaining Activity=100×[(ReadSample−LCave)/(HCave−LCave)] where HC is cells treated with 0.5 nM DHT only and LC is cells treated with 10 uM enzalutamide+0.5 nM DHT. Activation (agonist mode) was calculated as % Activation=100×[(ReadSample−LCave)/(HCave−LCave)] where HO is cells treated with 1 uM DHT and LC is cells treated with DMSO. Dose response curves and IC50 values were calculated using non-linear regression analysis in XLfit.
The designation “A” indicates an IC50 value of >10 μM, “B” indicates an IC50 value between 1 μM and 10 μM; “C” indicates an IC50 value between 100 nM and 1 μM; and “D” indicates an IC50 value of less than 100 nM.

SMILES	IC50 [nM]
CC(C)N(Cc1ccon1)C(=O)c1cc2ccc(F)cc2[nH]1 [Example 5, 6-fluoro-N-isopropyl-N-(1,2-oxazol-3-ylmethyl)-1H-indole-2-carboxamide]	1000 to 10000
Cc1c(C(=O)NC23CC(F)(C2)C3)n(C)c2c(Cl)nccc12 [Example 129, 7-chloro-N-{3-fluorobicyclo[1.1.1]pentan-1-yl}-1,3-dimethylpyrrolo[2,3-c]pyridine-2-carboxamide]	> 10000
CN(C(=O)c1cc2cccc(Cl)c2[nH]1)C1CCNCC1 [Example 43, 7-chloro-N-methyl-N-(piperidin-4-yl)-1H-indole-2-carboxamide]	> 10000
CN(C(=O)c1cc2cccc(Cl)c2[nH]1)C1CCCNC1 (stereo not drawn) [Example 42, 7-chloro-N-methyl-N-(piperidin-3-yl)-1H-indole-2-carboxamide]	> 10000
Cn1c(C(=O)NC23CC(F)(C2)C3)c(F)c2ccnc(Cl)c21 [Example 140, 7-chloro-3-fluoro-N-{3-fluorobicyclo[1.1.1]pentan-1-yl}-1-methylpyrrolo[2,3-c]pyridine-2-carboxamide]	100 to 1000
CC(C)N(Cc1cnco1)C(=O)c1cc2cccc(C#N)c2[nH]1 [Example 66, 7-cyano-N-isopropyl-N-(1,3-oxazol-5-ylmethyl)-1H-indole-2-carboxamide]	1000 to 10000
CC(C)N1CCCC(N(C)C(=O)c2cc3cccc(Cl)c3[nH]2)C1 (stereo not drawn) [Example 44, 7-chloro-N-(1-isopropylpiperidin-3-yl)-N-methyl-1H-indole-2-carboxamide]	> 10000
CC(C)N(Cc1ncco1)C(=O)c1cc2ccc(F)cc2[nH]1 [Example 2, 6-fluoro-N-isopropyl-N-(1,3-oxazol-2-ylmethyl)-1H-indole-2-carboxamide]	> 10000
O=C(NC12CC(F)(C1)C2)c1cc2ccnc(Cl)c2n1CC1CC1 [Example 113, 7-chloro-1-(cyclopropylmethyl)-N-{3-fluorobicyclo[1.1.1]pentan-1-yl}pyrrolo[2,3-c]pyridine-2-carboxamide]	100 to 1000
O=C(NC12CC(C1)C2)c1[nH]c2c(Cl)cccc2c1C1CC1 [Example 105, N-[bicyclo[1.1.1]pentan-1-yl]-7-chloro-3-cyclopropyl-1H-indole-2-carboxamide]	1000 to 10000
Cn1c(C(=O)NC23CC(F)(C2)C3)cc2cccc(Cl)c21 [Example 114, 7-chloro-N-{3-fluorobicyclo[1.1.1]pentan-1-yl}-1-methylindole-2-carboxamide]	< 100
NCCN(CC1CC1)C(=O)c1cc2cccc(Cl)c2[nH]1 [Example 47, N-(2-aminoethyl)-7-chloro-N-(cyclopropylmethyl)-1H-indole-2-carboxamide]	> 10000
CN(C(=O)c1cc2ccc(F)cc2o1)c1ccc(F)cc1 [Example 39, 6-fluoro-N-(4-fluorophenyl)-N-methyl-1-benzofuran-2-carboxamide]	1000 to 10000
COCCN(C(=O)c1cc2cccc(Cl)c2[nH]1)C12CC(C1)C2 [Example 90, N-[bicyclo[1.1.1]pentan-1-yl]-7-chloro-N-(2-methoxyethyl)-1H-indole-2-carboxamide]	1000 to 10000
CN(C(=O)c1cc2cccc(Cl)c2[nH]1)C1CC(C)(C)NC(C)(C)C1 [Example 75, 7-chloro-N-methyl-N-(2,2,6,6-tetramethylpiperidin-4-yl)-1H-indole-2-carboxamide]	> 10000
Cn1c(C(=O)NC23CC(C)(C2)C3)cc2ccnc(Cl)c21 [Example 142, 7-chloro-1-methyl-N-{3-methylbicyclo[1.1.1]pentan-1-yl}pyrrolo[2,3-c]pyridine-2-carboxamide]	1000 to 10000
CCn1c(C(=O)NC23CC(F)(C2)C3)cc2ccnc(Cl)c21 [Example 111, 7-chloro-1-ethyl-N-[3-fluorobicyclo[1.1.1]pentan-1-yl]pyrrolo[2,3-c]pyridine-2-carboxamide]	< 100

SMILES	IC50 [nM]
O=C(NC12CC(F)(C1)C2)c1cc2ccnc(Cl)c2n1CCN1CCOCC1 [Example 141, 7-chloro-N-{3-fluorobicyclo[1.1.1]pentan-1-yl}-1-[2-(morpholin-4-yl)ethyl]pyrrolo[2,3-c]pyridine-2-carboxamide]	> 10000
CN(C(=O)c1cc2ccc(F)cc2[nH]1)C12CC(C1)C2 [Example 93, N-[bicyclo[1.1.1]pentan-1-yl]-6-fluoro-N-methyl-1H-indole-2-carboxamide]	100 to 1000
CN(C(=O)c1cc2cccc(C(F)(F)F)c2[nH]1)c1ccccn1 [Example 26, N-methyl-N-(pyridin-2-yl)-7-(trifluoromethyl)-1H-indole-2-carboxamide]	100 to 1000
O=C(NC12CC(C1)C2)c1[nH]c2c(Cl)cccc2c1-c1ccccc1 [Example 108, N-[bicyclo[1.1.1]pentan-1-yl]-7-chloro-3-phenyl-1H-indole-2-carboxamide]	1000 to 10000
Cc1nccc2cc(C(=O)NC34CCC(C3)C4)n(C)c12 [Example 152, N-(bicyclo[2.1.1]hexan-1-yl)-1,7-dimethyl-1H-pyrrolo[2,3-c]pyridine-2-carboxamide]	1000 to 10000
O=C(NC1CC(F)(F)C1)c1cc2ccnc(Cl)c2[nH]1 [Example 100, 7-chloro-N-(3,3-difluorocyclobutyl)-1H-pyrrolo[2,3-c]pyridine-2-carboxamide]	100 to 1000
C[C@H]1OCC[C@@H]1NC(=O)c1cc2cccc(Cl)c2[nH]1 [Example 61, 7-chloro-N-[(2R,3S)-2-methyloxolan-3-yl]-1H-indole-2-carboxamide]	100 to 1000
CN(C(=O)c1nc2ccc(F)cc2[nH]1)c1ccccc1 [Example 23, 5-fluoro-N-methyl-N-phenyl-3H-1,3-benzodiazole-2-carboxamide]	> 10000
CN(C(=O)c1cc2cccc(Cl)c2[nH]1)C1CCCCC1 [Example 81, 7-chloro-N-cyclohexyl-N-methyl-1H-indole-2-carboxamide]	1000 to 10000
COc1nccc2cc(C(=O)NC34CC(F)(C3)C4)n(C)c12 [Example 118, N-{3-fluorobicyclo[1.1.1]pentan-1-yl}-7-methoxy-1-methylpyrrolo[2,3-c]pyridine-2-carboxamide]	1000 to 10000
N#Cc1cccc2cc(C(=O)N(CC3CC3)c3ccccn3)[nH]c12 [Example 60, 7-((I1-azaneyl)ethynyl)-N-(cyclopropylmethyl)-N-(pyridin-2-yl)-1H-indole-2-carboxamide]	> 10000
CN(C(=O)c1cc2ccc(F)cc2o1)c1ccccn1 [Example 38, 6-fluoro-N-methyl-N-(pyridin-2-yl)-1-benzofuran-2-carboxamide]	> 10000
CC(C)N(C(=O)c1cc2ccc(F)cc2[nH]1)c1ccccc1 [Example 11, 6-fluoro-N-isopropyl-N-phenyl-1H-indole-2-carboxamide]	100 to 1000
CN(C(=O)c1cc2cccc(Cl)c2[nH]1)c1ccc(C#N)cc1 [Example 33, 7-chloro-N-(4-cyanophenyl)-N-methyl-1H-indole-2-carboxamide]	1000 to 10000
N#Cc1ccc(NC(=O)c2cc3cccc(Cl)c3[nH]2)cc1 [Example 68, 7-chloro-N-(4-cyanophenyl)-1H-indole-2-carboxamide]	1000 to 10000
CC(C)N(C)C(=O)c1cc2ccnc(Cl)c2n1C [Example 134, 7-chloro-N-isopropyl-N,1-dimethylpyrrolo[2,3-c]pyridine-2-carboxamide]	100 to 1000
